Reference: patent US20140356383A1, “ADMINISTRATION OF AN ANTI-GCC ANTIBODY-DRUG CONJUGATE AND A DNA DAMAGING AGENT IN THE TREATMENT OF CANCER” (priority 2013, published 2014)

Experiments:
[1] = tested on: 293-GCC#2 tumors; assay: PK/PD study (phospho-histone H3) in 293-GCC#2 tumor bearing mice; format: in vivo
Excerpt: Phospho-histone H3 was detected by antibody (Upstate Biotechnology, now Millipore, Billerica, Mass.) staining of paraffin embedded sections of tumors.

[2] = tested on: 293 GCC#2 tumors; assay: Efficacy study with auristatin conjugates in 293 GCC#2 tumors, q7d×4; format: in vivo, SCID mice; details: for T/C: treatment/control
Description: 293 GCC#2 tumor-bearing SCID mice were treated with 5F9 conjugates with vc MMAE, vcMMAF or mcMMAF at three doses in comparison with 209 conjugates of these toxins or with free toxins or vehicle control. Doses were administered iv on a q7d×4 schedule. Tumors were harvested at days 3, 7, 10, 13 and 17. […] Table 18 provides a summary of the results (TGI=tumor growth inhibition, T/C=treatment/control, TGD=tumor growth delay, CR/PR=complete response/partial response; p value=measure to judge statistical significance, NS=not significant).

[3] = tested on: HT 29 GCC #18 cells; assay: Direct cytotoxicity assay (WST), HT 29 GCC #18 cells; format: cell-based, human; details: auristatin ADCs
[4] = tested on: 293-GCC#2 s.c. tumors; assay: Efficacy study with 5F9vcMMAF and 5F9-DMx in 293-GCC#2 s.c. tumors, q14d×5; format: in vivo; details: 293-GCC#2 bearing SCID mice, 75 and 150 μg/kg toxin
Description: 5F9-SPDB-DM4, 5F9-SMCC-DM1 and 5F9vcMMAF were tested for efficacy in the 293-GCC#2 tumor model at two doses (75 μg/kg and 150 […] toxin), on a q14d×5 schedule. Specifically, this study included vehicle-treated control, Sc209-DM1 (150 μg/kg DM1 eq), Sc209-DM4 (150 μg/kg DM4 eq), Sc209-vcMMAF (150 μg/kg MMAF eq), 5F9-DM1 (150 μg/kg DM1 eq), 5F9-DM1 (75 μg/kg DM1 eq), 5F9-DM4 (150 μg/kg DM4 eq), 5F9-DM4 (75 μg/kg DM4 eq), 5F9-vcMMAF (150 μg/kg MMAF eq), and 5F9-vcMMAF (75 μg/kg MMAF eq). Taconic female mice bearing 293-GCC#2 cells (10 mice per group) were used.
FIG. 1 depicts tumor growth in 293-GCC#2 bearing SCID mice treated with 5F9vc-MMAF, -DM1, and -DM4 on a q14d schedule. […] Therefore at these doses and schedules, 5F9-SPDB-DM4 had the greatest efficacious differential from its control conjugate.

[5] = tested on: HT29-GCC#5 s.c. tumors; assay: Pilot efficacy studies in HT29-GCC#5 s.c. tumors; format: in vivo; details: 150 μg/kg on a q3d×5 schedule, mice bearing HT29-GCC#5 tumors
Description: Studies were performed to determine efficacious conjugates and dosage regimens in mice bearing HT29-GCC#5 tumors. Mice were dosed with single or multiple doses. These studies determined that there was toxicity at too frequent dosing at higher levels of toxin conjugate (e.g., 150 μg/kg 5F9vcMMAF on a q3d×5 schedule). Another study determined that q14d×5 schedule was too infrequent in this model to allow some toxin conjugates to show significant efficacy vs. controls.

With “5F9-vcMMAF: 5F9 anti-GCC antibody conjugated with mc-vc-MMAF” the “Average % Tumor cells pH 3 positive” value ([1]; single iv dose 75 μg/kg, 1 hr) was 4.235%, the “Average % Tumor cells pH 3 positive” value ([1]; single iv dose 75 μg/kg, 4 hr) was 4.184% and the “Average % Tumor cells pH 3 positive” value ([1]; single iv dose 75 μg/kg, 8 hr) was 4.93%. The “Average % Tumor cells pH 3 positive” value ([1]; single iv dose 75 μg/kg, 24 hr) was 20.22%, the “Average % Tumor cells pH 3 positive” value ([1]; single iv dose 75 μg/kg, 48 hr) was 9.921% and the “Average % Tumor cells pH 3 positive” value ([1]; single iv dose 75 μg/kg, 96 hr) was 10.38%. For the same substance, the “Average % Tumor cells pH 3 positive” value ([1]; single iv dose 150 μg/kg, 1 hr) was 3.466%, the “Average % Tumor cells pH 3 positive” value ([1]; single iv dose 150 μg/kg, 4 hr) was 4.417% and the “Average % Tumor cells pH 3 positive” value ([1]; single iv dose 150 μg/kg, 8 hr) was 8.594%. The “Average % Tumor cells pH 3 positive” value ([1]; single iv dose 150 μg/kg, 24 hr) was 21.54%, the “Average % Tumor cells pH 3 positive” value ([1]; single iv dose 150 μg/kg, 48 hr) was 15.16% and the “Average % Tumor cells pH 3 positive” value ([1]; single iv dose 150 μg/kg, 96 hr) was 11.12%. It also gave a TGI ([2]; 37.5 μg/kg iv q7d×4) of 65.2, a T/C ([2]; 37.5 μg/kg iv q7d×4) of 0.35 and a TGD ([2]; 37.5 μg/kg iv q7d×4, tumor growth delay) of 7.1. The TGI ([2]; 75 μg/kg iv q7d×4) was 88.5, the T/C ([2]; 75 μg/kg iv q7d×4) was 0.12 and the TGI ([2]; 150 μg/kg iv q7d×4) was 97. The T/C ([2]; 150 μg/kg iv q7d×4) was 0.03, the “LD 50 (nM)” value [3] was >10,000 nM and the “efficacy (tumor growth, FIG. 1)” value [4] was “the most efficacious”. The “toxicity at too frequent dosing” value [5] was “toxicity”.
